Test results published in article PMC3937006, “Synergism of peptide receptor-targeted Auger electron radiation therapy with anti-angiogenic compounds in a mouse model of neuroendocrine tumors” (EJNMMI Research, 2014).

Assays:
[1] = system: CD31-positive blood vessels in tumors of Rip1Tag2 mice; experiment: Microvessel density, CD31 immunohistochemistry on tumor sections; type: in vivo, mouse; conditions: for microvessel density, CD31-positive blood vessels (median): Rip1Tag2 mice after 7-day therapy, radiopeptide 1.1 MBq, natIn-exendin-4 40 pmol, kinase inhibitor 100 mg/kg p.o.
[2] = system: pancreatic tumors and other organs of Rip1Tag2 mice; type: in vivo, mouse
Method: Male and female Rip1Tag2 mice, 19 to 32 g of weight and 11.6 ± 0.7 weeks old, were stratified according to their age and randomly assigned to the different cohorts. […] Both vatalanib and imatinib were provided by Novartis (Basel, Switzerland). Days (0, 3, 5, and 7 days) after the beginning of vatalanib or imatinib treatment, the mice were injected through the tail vein with 185 kBq (10 ng peptide/2 pmol) [Lys^40(Ahx-DTPA-^111In)NH2]-exendin-4 (^111In-DTPA-exendin-4) in a 100-μl 1% human serum albumin solution diluted in 0.9% NaCl. At 4 h after injection, the mice were sacrificed under isoflurane and CO2 anesthesia. The organs, blood, and tumors were collected, weighed, and the radioactivity in these samples was determined using a γ-counter. The percentage of injected activity (IA)/g tissue was calculated for each tissue.

[3] = system: tumor β-cells of Rip1Tag2 mice; experiment: Tumor cell apoptosis, TUNEL assay; type: in vivo, mouse; conditions: Rip1Tag2 mice after 7-day therapy, vatalanib study
GLP-1R = experiment: GLP-1 receptor autoradiography of tumors after vatalanib treatment; type: in vivo, mouse; conditions: Rip1Tag2 mice, vatalanib 100 mg/kg p.o. for 4 days, n = 4; 32 pM [125I]-GLP-1; p = 0.98 vs saline control
Method: GLP-1 receptor autoradiography was used to quantify the GLP-1 receptors in the mouse tumors in the presence or absence of vatalanib treatment. The Rip1Tag2 mice were treated with vatalanib as described before for 4 days and sacrificed on day 5. During necropsy, the tumors were snap frozen on dry ice. Tumor sections (20-μm thick) were incubated for 2 h at ambient temperature in the presence of 32 pM [^125I]-GLP-1 (2,000 Ci/mmol). The incubation solution was 170 mM Tris-HCI buffer (pH 8.2) containing 1% bovine serum albumin, bacitracin (40 μg/ml) and MgCl2 (10 mM) to inhibit endogenous proteases. Non-specific binding was determined by adding 100-nM solution of unlabeled GLP-1. The incubated sections were washed twice for 5 min in cold incubation buffer containing 0.25% bovine serum albumin, then in buffer alone, and dried quickly. Finally, the sections were apposed to Biomax MR films (Kodak, Rochester, NY, USA) and exposed for 1 week in X-ray cassettes.
In all the experiments, the autoradiograms were quantified using a computer-assisted image processing system. Tissue standards for iodinated compounds were used for this purpose.

[4] = system: pancreatic neuroendocrine tumors (pNET) of Rip1Tag2 mice; experiment: Therapy study, tumor volume in Rip1Tag2 mice; conditions: day 8, radiopeptide 1.1 MBq i.v. once, kinase inhibitor 100 mg/kg p.o. daily for 7 days
[5] = system: GLP-1 receptor-expressing tumor cells established from pancreatic tumors of Rip1Tag2 mice; type: cell-based, mouse
Method: A nuclei isolation kit (Nuclei EZ Prep Kit, Sigma-Aldrich Chemie Gmbh, Steinheim, Germany) was used to separate and quantify the amount of radioactivity stored in the nuclei. The preparation was done according to the manufacturer's instructions. The GLP-1 receptor-expressing tumor cells were established from pancreatic tumors of Rip1Tag2 mice, as described previously. The cells were seeded at a density of 2 × 10^7 cells in Petri dishes and incubated overnight. Afterward, 25 pmol ^111In-DTPA-exendin-4 (2.5 MBq) was added to the Petri dishes and incubated at 37°C. The internalization was stopped at 2, 4, and 24 h by removing the medium and by washing the cells four times with 5-ml ice-cold phosphate-buffered saline. Ice-cold nuclei EZ lysis buffer (2 ml) was added, and the cells were scraped with a small bladed cell scraper. The cell lysate was transferred to a separate 15-ml centrifuge tube and set on ice for 5 min. To collect the nuclei, the cell lysate was centrifuged three times at 500 g for 5 min at 4°C. The culture medium, the clear supernatant (cytoplasmatic supernatant), and nucleus pellets were measured radiometrically with a γ-counter.

[6] = system: pancreatic neuroendocrine tumors (pNET) of Rip1Tag2 mice; conditions: injection of 28 MBq; cited from earlier work
Excerpt: (§1) We have shown in the Rip1Tag2 mouse model of pancreatic neuroendocrine tumors (pNET) that [Lys^40(Ahx-DTPA-^111In)NH2]-exendin-4 is suitable for molecular imaging of NETs using single-photon emission computed tomography (SPECT). pNETs could be detected down to a size of 1 mm in diameter. In a clinical pilot study, we could localize occult insulinomas that were not detectable using conventional imaging methods.

[7] = system: pancreas, lungs, bowel and kidneys of Rip1Tag2 and C57/Bl6 mice; conditions: dose of 28 MBq; cited from earlier work
Excerpt: as §1

[8] = system: pancreatic tumors and other organs of Rip1Tag2 mice; conditions: mouse, in vivo; cited from earlier work
Excerpt: Thus, the combination with an anti-angiogenic drug that has a different toxicity profile than the radiopeptide reduces the amount of [Lys^40(Ahx-DTPA-^111In)NH2]-exendin-4 and is a more nephroprotective treatment. This is relevant because kidney ...

Row | Compound | effect on tumor-associated vessels ([1]; imatinib 100 mg/kg p.o. for 7 days) | effect of pre-treatment on uptake of the radiopeptide ([2]; imatinib 100 mg/kg p.o. daily, independent of organ or time point (0, 3, 5, 7 days)) | number of apoptotic cells/0.1 mm^2 (median) [3] [cells/0.1 mm^2] | microvessel density, CD31-positive blood vessels (median) [1] | expression of the GLP-1R on pancreatic tumors by autoradiography (GLP-1R) | effect on radiopeptide uptake in all the other organs ([2]; vatalanib 100 mg/kg p.o. daily up to 7 days) | reduction of radiopeptide uptake in the kidney ([2]; vatalanib 100 mg/kg p.o. daily, within 7 days, p < 0.001) [%] | decrease of specific tumor uptake of radiopeptide ([2]; within the first 5 days of vatalanib treatment) | tumor volume treated/volume control (T/C) ratio [4] | internalized activity accumulated in the nucleus [5] | reduction of the tumor mass [6] [%] | renal toxicity [7] | tumor uptake [8] [% IA/g tumor]
1 | Cc1ccc(NC(=O)c2ccc(CN3CCN(C)CC3)cc2)cc1Nc1nccc(-c2cccnc2)n1 [imatinib] | no apparent effect | did not affect the uptake |  |  |  |  |  |  |  |  |  |  | 
2 | Clc1ccc(Nc2nnc(Cc3ccncc3)c3ccccc23)cc1 [vatalanib] |  |  | 1.7 | 28 /mm^2 | 14,176 ± 5,958 dgm/min | unaffected | 29.5 | more than 50% | 0.26 |  |  |  | 
3 | [Lys^40(Ahx-DTPA-^111In)NH2]-exendin-4 |  |  |  | 77 /mm^2 |  |  |  |  |  | less than 5% | 94 | significant renal radiation damage and consequent chronic renal failure | 287 ± 62
